Data on eight compounds can be found in ChEMBL document CHEMBL3132845, “Design and discovery of 4-anilinoquinazoline ureas as multikinase inhibitors targeting BRAF, VEGFR-2 and EGFR” (Medchemcomm, 2013).

For experiment [1], the target named is Epidermal growth factor receptor (Homo sapiens, UniProt P00533). Nature of the experiment: Inhibition of EGFR (unknown origin) after 1 hr by Caliper mobility shift assay.
In experiment [2] the target is T1, Vascular endothelial growth factor receptor 2 (Homo sapiens, UniProt P35968). Nature of the experiment: Ratio of sorafenib IC50 to compound IC50 for VEGFR2 (unknown origin) after 1 hr by Caliper mobility shift assay.
The target in experiment [3] is T1, Vascular endothelial growth factor receptor 2. Nature of the experiment: Inhibition of VEGFR2 (unknown origin) after 1 hr by Caliper mobility shift assay.
In experiment [4] the target is Serine/threonine-protein kinase B-raf (Homo sapiens, UniProt P15056, V600E). Nature of the experiment: Inhibition of BRAF V600E mutant (unknown origin) after 1 hr by LanthaScreen assay. On the technique in general: Time-resolved FRET reads energy transfer from a long-lived donor to a nearby acceptor.
The target of experiment [5] is T2, Serine/threonine-protein kinase B-raf (Homo sapiens, UniProt P15056). Nature of the experiment: Inhibition of BRAF (unknown origin) after 1 hr by LanthaScreen assay.
Experiment [6] concerns the target T2, Serine/threonine-protein kinase B-raf. Nature of the experiment: Ratio of sorafenib IC50 to compound IC50 for BRAF (unknown origin) after 1 hr by LanthaScreen assay.

Serine/threonine-protein kinase B-raf (Homo sapiens, UniProt P15056, V600E), sequence (P15056 2-766 V600E limits assumed): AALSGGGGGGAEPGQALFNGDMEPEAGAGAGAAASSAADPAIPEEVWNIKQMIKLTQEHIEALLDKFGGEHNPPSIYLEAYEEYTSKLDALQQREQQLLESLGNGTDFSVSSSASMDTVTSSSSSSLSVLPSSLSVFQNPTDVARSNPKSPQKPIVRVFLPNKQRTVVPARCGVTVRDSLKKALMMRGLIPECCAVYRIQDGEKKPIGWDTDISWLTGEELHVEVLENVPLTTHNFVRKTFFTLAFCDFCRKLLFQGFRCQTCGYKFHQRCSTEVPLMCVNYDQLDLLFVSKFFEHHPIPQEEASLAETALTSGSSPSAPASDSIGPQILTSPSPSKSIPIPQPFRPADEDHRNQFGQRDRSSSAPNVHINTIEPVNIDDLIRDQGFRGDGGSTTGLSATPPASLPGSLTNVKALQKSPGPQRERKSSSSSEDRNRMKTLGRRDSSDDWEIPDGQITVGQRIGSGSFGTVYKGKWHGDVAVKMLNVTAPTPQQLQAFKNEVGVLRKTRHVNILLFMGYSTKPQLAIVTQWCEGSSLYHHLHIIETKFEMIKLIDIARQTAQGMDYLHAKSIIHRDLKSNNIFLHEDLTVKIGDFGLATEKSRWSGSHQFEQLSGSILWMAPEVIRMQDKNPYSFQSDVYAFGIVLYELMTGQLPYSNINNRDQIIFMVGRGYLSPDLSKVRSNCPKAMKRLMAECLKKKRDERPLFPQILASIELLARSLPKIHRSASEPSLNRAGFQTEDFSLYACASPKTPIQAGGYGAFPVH
Epidermal growth factor receptor, sequence (P00533 whole entry): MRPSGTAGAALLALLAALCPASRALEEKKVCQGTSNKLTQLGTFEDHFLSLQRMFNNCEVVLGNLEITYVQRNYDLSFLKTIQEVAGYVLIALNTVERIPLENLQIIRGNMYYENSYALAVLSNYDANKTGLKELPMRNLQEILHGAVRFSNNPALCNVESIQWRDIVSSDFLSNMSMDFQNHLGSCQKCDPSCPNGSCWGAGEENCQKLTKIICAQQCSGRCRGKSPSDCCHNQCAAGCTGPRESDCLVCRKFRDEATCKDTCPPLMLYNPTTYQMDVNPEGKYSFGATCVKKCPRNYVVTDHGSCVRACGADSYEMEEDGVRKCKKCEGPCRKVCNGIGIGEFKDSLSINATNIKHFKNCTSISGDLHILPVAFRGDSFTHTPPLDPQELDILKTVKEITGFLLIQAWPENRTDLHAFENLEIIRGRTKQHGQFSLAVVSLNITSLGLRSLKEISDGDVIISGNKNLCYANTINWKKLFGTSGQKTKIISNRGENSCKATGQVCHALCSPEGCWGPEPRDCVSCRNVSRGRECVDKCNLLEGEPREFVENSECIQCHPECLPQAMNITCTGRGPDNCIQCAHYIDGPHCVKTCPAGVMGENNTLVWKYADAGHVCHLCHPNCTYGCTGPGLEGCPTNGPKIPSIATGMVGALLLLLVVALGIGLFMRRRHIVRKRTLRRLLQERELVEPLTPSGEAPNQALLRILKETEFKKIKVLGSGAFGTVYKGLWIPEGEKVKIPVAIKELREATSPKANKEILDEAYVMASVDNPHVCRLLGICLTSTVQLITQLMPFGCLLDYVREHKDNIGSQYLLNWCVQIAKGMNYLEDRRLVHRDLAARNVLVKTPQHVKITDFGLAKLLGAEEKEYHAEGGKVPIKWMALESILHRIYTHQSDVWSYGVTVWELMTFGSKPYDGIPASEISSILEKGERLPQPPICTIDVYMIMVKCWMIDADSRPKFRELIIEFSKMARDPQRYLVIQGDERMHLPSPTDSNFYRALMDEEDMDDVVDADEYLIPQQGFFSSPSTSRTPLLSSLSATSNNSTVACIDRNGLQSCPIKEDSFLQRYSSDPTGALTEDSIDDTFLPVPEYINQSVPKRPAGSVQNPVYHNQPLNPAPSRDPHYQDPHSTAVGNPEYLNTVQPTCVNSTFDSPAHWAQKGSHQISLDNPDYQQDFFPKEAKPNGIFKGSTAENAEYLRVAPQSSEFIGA
T2 sequence (P15056 whole entry): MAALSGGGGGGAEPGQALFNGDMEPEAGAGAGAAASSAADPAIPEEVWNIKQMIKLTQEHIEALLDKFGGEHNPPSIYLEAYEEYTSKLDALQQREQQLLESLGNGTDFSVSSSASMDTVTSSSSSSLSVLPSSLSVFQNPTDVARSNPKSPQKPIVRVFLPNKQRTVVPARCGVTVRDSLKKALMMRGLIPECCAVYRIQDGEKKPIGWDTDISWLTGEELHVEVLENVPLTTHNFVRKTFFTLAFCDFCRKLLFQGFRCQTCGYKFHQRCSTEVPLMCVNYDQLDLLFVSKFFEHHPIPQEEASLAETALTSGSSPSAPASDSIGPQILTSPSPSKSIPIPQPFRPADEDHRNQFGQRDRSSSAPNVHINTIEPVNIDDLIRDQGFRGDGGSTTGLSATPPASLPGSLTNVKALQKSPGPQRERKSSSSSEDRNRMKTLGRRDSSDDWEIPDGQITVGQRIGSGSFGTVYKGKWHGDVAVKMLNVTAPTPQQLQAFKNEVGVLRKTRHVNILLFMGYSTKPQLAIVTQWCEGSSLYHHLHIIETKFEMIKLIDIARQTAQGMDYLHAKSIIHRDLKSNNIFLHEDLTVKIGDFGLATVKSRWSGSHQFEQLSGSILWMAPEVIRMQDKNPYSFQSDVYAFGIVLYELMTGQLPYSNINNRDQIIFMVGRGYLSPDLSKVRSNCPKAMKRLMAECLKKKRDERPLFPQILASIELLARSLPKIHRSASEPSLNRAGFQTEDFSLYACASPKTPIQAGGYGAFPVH
T1 sequence (P35968 whole entry): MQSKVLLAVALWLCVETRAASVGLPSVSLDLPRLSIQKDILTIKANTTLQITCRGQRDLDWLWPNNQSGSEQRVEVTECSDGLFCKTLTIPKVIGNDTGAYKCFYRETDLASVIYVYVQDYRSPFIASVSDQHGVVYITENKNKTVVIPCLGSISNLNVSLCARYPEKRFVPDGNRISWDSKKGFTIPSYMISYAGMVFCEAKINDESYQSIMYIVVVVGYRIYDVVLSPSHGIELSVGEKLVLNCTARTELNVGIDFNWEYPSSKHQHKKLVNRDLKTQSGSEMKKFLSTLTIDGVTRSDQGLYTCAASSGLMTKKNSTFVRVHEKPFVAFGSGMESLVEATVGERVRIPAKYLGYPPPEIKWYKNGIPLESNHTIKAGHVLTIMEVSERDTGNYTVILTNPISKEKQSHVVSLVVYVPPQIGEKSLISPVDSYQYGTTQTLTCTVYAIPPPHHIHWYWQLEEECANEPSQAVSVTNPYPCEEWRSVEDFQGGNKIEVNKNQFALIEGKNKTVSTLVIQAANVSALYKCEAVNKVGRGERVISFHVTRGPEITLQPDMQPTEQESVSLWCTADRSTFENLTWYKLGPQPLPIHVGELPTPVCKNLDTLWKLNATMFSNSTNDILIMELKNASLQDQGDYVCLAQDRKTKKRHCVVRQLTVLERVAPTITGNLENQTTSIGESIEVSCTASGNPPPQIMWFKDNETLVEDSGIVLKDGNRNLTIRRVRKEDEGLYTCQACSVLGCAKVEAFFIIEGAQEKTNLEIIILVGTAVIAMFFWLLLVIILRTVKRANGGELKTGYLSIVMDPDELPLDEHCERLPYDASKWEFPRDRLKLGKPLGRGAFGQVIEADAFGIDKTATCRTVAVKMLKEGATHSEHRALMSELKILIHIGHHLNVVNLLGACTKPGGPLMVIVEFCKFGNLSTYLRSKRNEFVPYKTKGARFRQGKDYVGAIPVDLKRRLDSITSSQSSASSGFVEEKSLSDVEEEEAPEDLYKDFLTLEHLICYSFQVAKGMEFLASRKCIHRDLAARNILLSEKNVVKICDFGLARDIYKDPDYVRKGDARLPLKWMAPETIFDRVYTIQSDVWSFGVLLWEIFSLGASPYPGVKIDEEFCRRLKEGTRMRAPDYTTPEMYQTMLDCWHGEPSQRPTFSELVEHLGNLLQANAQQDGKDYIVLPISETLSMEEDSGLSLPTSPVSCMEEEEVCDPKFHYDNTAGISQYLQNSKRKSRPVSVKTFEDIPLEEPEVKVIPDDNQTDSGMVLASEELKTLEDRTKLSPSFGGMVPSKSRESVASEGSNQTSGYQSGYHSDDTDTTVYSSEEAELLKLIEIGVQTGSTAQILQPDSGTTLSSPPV

On to `COc1cc2ncnc(Nc3ccc(NC(=O)Nc4ccc(Cl)c(C(F)(F)F)c4)cc3)c2cc1OCCCN1CCOCC1`, for which the IC50 (in general, the concentration that gives 50% inhibition) was 285 nM in experiment [1], 17 nM in experiment [3], 371 nM in experiment [4] and 539 nM in experiment [5]. Also, the Ratio IC50 in experiment [2] came out at 3.
As for `COc1cc2ncnc(Nc3cccc(NC(=O)Nc4ccc(Cl)c(C(F)(F)F)c4)c3)c2cc1OCCCN1CCOCC1`, the IC50 in experiment [1] is 82 nM; in experiment [3], 213 nM; in experiment [4] it was 75 nM; in experiment [5] it was 195 nM.
Turning to `O=C(Nc1cccc(Nc2ncnc3cc(OCCCN4CCOCC4)ccc23)c1)Nc1ccc(F)c(Cl)c1`, the IC50 in experiment [1] is 3320 nM; in experiment [3] it was 2170 nM; in experiment [4] it was 42 nM; in experiment [5], 72 nM.
For the compound `CCN(CCO)CCCOc1ccc2c(Nc3cccc(NC(=O)Nc4ccc(Cl)c(C(F)(F)F)c4)c3)ncnc2c1`, the IC50 in experiment [1] is 188 nM; in experiment [3], 91 nM; in experiment [4], 53 nM; in experiment [5], 112 nM.
On to `COc1cc2ncnc(Nc3cccc(NC(=O)Nc4cccc(C)c4)c3)c2cc1OCCCN1CCOCC1`, for which the IC50 in experiment [1] was 2350 nM; in experiment [3], 8570 nM; in experiment [4], 54 nM; in experiment [5], 119 nM.
Take `O=C(Nc1cccc(Nc2ncnc3cc(OCCCN4CCN(CCO)CC4)ccc23)c1)Nc1ccc(Cl)c(C(F)(F)F)c1`: the IC50 came to 99 nM in experiment [1], 75 nM in experiment [3], 58 nM in experiment [4] and 101 nM in experiment [5].
For `COc1cc2ncnc(Nc3cccc(NC(=O)Nc4ccc(F)c(Cl)c4)c3)c2cc1OCCCN1CCOCC1`, in experiment [6], the Ratio IC50 was found to be 4. Besides, the IC50 in experiment [1] was over 10000 nM; in experiment [3], over 10000 nM; in experiment [4], 55 nM; in experiment [5], 31 nM.
Regarding `CCN(CCO)CCCOc1ccc2c(Nc3cccc(NC(=O)Nc4ccc(F)c(Cl)c4)c3)ncnc2c1`, the Ratio IC50 in experiment [6] was found to be 5. Also, the IC50 in experiment [1] worked out at 165 nM; in experiment [3] it was 95 nM; in experiment [4] it was 13 nM; in experiment [5], 22 nM.
